Legend:
[1] = tested on: allergen-induced asthma bronchiale; assay: Protective action in allergen-induced asthma bronchiale of guinea pigs (ovalbumin inhalation); format: in vivo; settings: FIGS. 4-6; dosage as in 1a); ovalbumin one percent, twice
Experimental: 1. Investigation of the asthma-protective action of compounds in vivo. There was used a mixture of compound 1) (identical with formula III on p.13 of the German text) and compound 2) (identical with formula IV on p.13 of the German text). The ratio of 1): 2) amounted to about 1:2.
For the investigation of the asthma-protective action in vivo, corresponding experiments were carried out with guinea pigs (Dorsch W. et al., Pflugers Arch. 391, page 263 (1981).
9 guinea pigs were--was described under 1a)--corresponding to a randomised crossover protocol, either fed with the active component in olive oil or with the carrier olive oil alone. The dosage of the administered compound amounted to 20 mg./kg. body weight. 30 Minutes later, the animals inhaled twice, at an interval of 10 minutes, in each case for 20 seconds, a one percent ovalbumin solution, the substance to which they had been sensitised 3 weeks previously. The extent of the resulting bronchial obstruction was also determined whole body plethysmographically in 2 minute intervals for the period of twice 10 minutes (for the method see: Dorsch W, Walter O., Rosmanith J.: Continuous Recording of Intrapulmonary "Compressed Air" as a Sensitive Noninvasive Method of Measuring Branchial Obstruction in Guinea Pigs, Pflugers Arch. 391: 236-241 (1981)). […]

[2] = tested on: thromboxane biosynthesis of thrombin-stimulated platelet-rich plasma; assay: Inhibition of the thromboxane biosynthesis of thrombin-stimulated platelet-rich plasma; format: cell-based, human; settings: 0.001 mg/ml to 1.0 mg/ml, 15 min
Experimental: The enzyme-inhibiting action of the compounds were determined in vitro; use of the mixture of compounds 1) and 2).
From a human donor was obtained platelet-rich plasma by the usual method and adjusted to a platelet count of […]. This plasma was incubated either with a solvent (1% dimethyl sulphoxide (DMSO) -physiological common salt solution) or with various concentrations of the compounds (s. Table II).
5 Minutes later, the platelets were stimulated with thrombin (1 or 10 International Units=I.U.) at 37° C. After 15 minutes, the reaction was stopped with ice-cold methanol (volume ratio 1:1), thereafter separated by 10 minutes centrifuging at 3000 U/min. (4° C.).

SMILES | Asthmatic reaction to the inhalation of an antigen [1] | maximum dosage-dependent suppression of the thromboxane B2 biosynthesis [2]
CS[S+](C)[O-] (stereo not shown) [compound 3, methylthiosulphinic acid methyl ester] | clearly weaken the asthmatic reaction | 61%
[O-][S+](Sc1ccccc1)c1ccccc1 (stereo not shown) [compound 4, phenylthiosulphinic acid phenyl ester] | clearly weaken the asthmatic reaction | 76%

— US5321045A, “Method and composition for the treatment of imflammatory conditions using thiosulphinic acid derivatives” (Boehringer Mannheim GmbH, priority 1987, dated 1994)
